Laboratory results reported in patent US9617244B2, “Antibacterial quinoline derivatives” (JANSSEN PHARMACEUTICA NV, priority 2012, dated 2017).
Converted amounts (≈) assume the structure as drawn.

tested on: Mycobacterium smegmatis (ATCC607); experiment: In-vitro anti-bacterial activity against strain M. Smegmatis ATCC607; format: cell-based; conditions: 90% inhibitory concentration for bacterial growth, 48 hours, Alamar Blue fluorescence
Summary of the method: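 Serial five-fold compound dilutions in BSA-supplemented wells, inoculated with ~250 CFU/well in Mueller-Hinton broth, incubated 48 h at 37 °C, 5% CO2. Growth read by Alamar Blue fluorescence (ex 530/em 590 nm); IC90 in μg/ml.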

IC90 MSM 607 [µg/mL] | SMILES
5.69 (≈ 10 µM) | COc1nc2ccc(S(C)(=O)=O)cc2cc1C(c1cccc(Cl)c1)C1(O)CCNC(c2ccc(F)cc2C)C1 (stereo not drawn) [Compound 47]
0.62 (≈ 1.26 µM) | COc1nc2ccc(F)cc2cc1C(c1ccc(Cl)cc1)C1(O)CCNC(Cc2ccccc2)C1 (stereo not drawn) [Compound 52]
2.46 (≈ 5.01 µM) | COc1nc2ccc(F)cc2cc1C(c1ccc(Cl)cc1)C1(O)CCNC(Cc2ccccc2)C1 (stereo not drawn) [Compound 53]
>13.94 | CS(=O)(=O)c1ccc2[nH]c(=O)c(C(c3ccc(Cl)cc3)C3(O)CCNC(Cc4ccc(F)cc4)C3)cc2c1 (stereo not drawn) [Compound 56]
1.39 (≈ 2.51 µM) | COc1nc2ccc(Br)cc2cc1C(c1ccc(Cl)cc1)C1(O)CCNC(Cc2ccccn2)C1 (stereo not drawn) [Compound 60]
0.85 (≈ 1.59 µM) | COc1nc2ccc(Br)cc2cc1C(c1ccccc1)C1(O)CCNC(c2ccc(F)cc2C)C1 (stereo not drawn) [Compound 61]
1.59 (≈ 3.16 µM) | CCCN(C)CC1CC(O)(C(c2ccc(Cl)cc2)c2cc3cc(Cl)ccc3nc2OC)CCN1 (stereo not drawn) [Compound 63]
>14.27 | COc1nc2ccc(S(C)(=O)=O)cc2cc1C(c1ccc(Cl)cc1)C1(O)CCNCC1Cc1cccc[n+]1[O-] (stereo not drawn) [Compound 66]
1.60 (≈ 2.83 µM) | CCn1c(=O)c(C(c2ccc(Cl)cc2)C2(O)CCNC(Cc3ccccc3)C2)cc2cc(Br)ccc21 (stereo not drawn) [Compound 82]
3.57 (≈ 6.31 µM) | CCn1c(=O)c(C(c2ccc(Cl)cc2)C2(O)CCNC(Cc3ccccc3)C2)cc2cc(Br)ccc21 (stereo not drawn) [Compound 83]
13.84 (≈ 25.1 µM) | COc1nc2ccc(S(C)(=O)=O)cc2cc1C(c1ccc(Cl)cc1)C1(O)CCNC(Cc2ccccc2)C1 (stereo not drawn) [Compound 97]
7.09 (≈ 12.6 µM) | COc1nc2ccc(Br)cc2cc1C(c1ccc(SC)cc1)C1(O)CCNC(Cc2ccccc2)C1 (stereo not drawn) [Compound 100]
14.96 (≈ 25.1 µM) | COc1nc2ccc(Br)cc2cc1C(c1ccc(S(C)(=O)=O)cc1)C1(O)CCNC(Cc2ccccc2)C1 (stereo not drawn) [Compound 103]

Continued, molecule first:

SMILES | IC90 MSM 607 [µg/mL]
COc1nc2ccc(Cl)cc2cc1C(c1ccc(Cl)cc1)C1(O)CCNC(c2ccc(F)cc2C)C1 (single isomer, unassigned) [Compound 2] | 13.20 (≈ 25.1 µM)
COc1nc2ccc(Cl)cc2cc1C(c1ccc(Cl)cc1)C1(O)CCNC(c2ccc(F)cc2C)C1 (single isomer, unassigned) [Compound 3] | 0.83 (≈ 1.58 µM)
COc1nc2ccc(Br)cc2cc1C(c1ccc(Cl)cc1)C1(O)CCNC(Cc2ccccc2)C1 (stereo not drawn) [Compound 31] | 1.90 (≈ 3.44 µM)
COc1nc2ccc(Br)cc2cc1C(c1ccc(Cl)cc1)C1(O)CCNC(Cc2ccccc2)C1 (stereo not drawn) [Compound 33] | >3.48
COc1nc2ccc(Br)cc2cc1C(c1cccc(Cl)c1)C1(O)CCNC(Cc2ccccc2)C1 (stereo not drawn) [Compound 34] | 2.20 (≈ 3.99 µM)
COc1nc2ccc(Cl)cc2cc1C(c1ccc(Cl)cc1)C1(O)CCNC(Cc2ccccc2)C1 (stereo not drawn) [Compound 37] | 0.90 (≈ 1.77 µM)
COc1nc2ccc(S(C)(=O)=O)cc2cc1C(c1cccc(Cl)c1)C1(O)CCNC(c2ccc(F)cc2C)C1 (stereo not drawn) [Compound 44] | 3.59 (≈ 6.31 µM)
COc1nc2ccc(S(C)(=O)=O)cc2cc1C(c1cccc(Cl)c1)C1(O)CCNC(c2ccc(F)cc2C)C1 (stereo not drawn) [Compound 45] | 1.14 (≈ 2 µM)
COc1nc2ccc(S(C)(=O)=O)cc2cc1C(c1cccc(Cl)c1)C1(O)CCNC(c2ccc(F)cc2C)C1 (stereo not drawn) [Compound 46] | 1.80 (≈ 3.16 µM)

tested on: Staphylococcus aureus (ATCC29213); experiment: In-vitro anti-bacterial activity, microtitre plate assay, IC90 determination (non-mycobacterial strains); format: cell-based; conditions: 90% inhibitory concentration for bacterial growth, 24 hours, resazurin fluorescence
Summary of the method: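 Inoculum of about 100 TCID50 (10–60 CFU/well) in Mueller-Hinton broth, serial five-fold compound dilutions, 24 h at 37 °C in air. Growth read by resazurin fluorescence (ex 530/em 590 nm); IC90 in μg/ml as 90% growth inhibition.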

IC90 STA B29213 [µg/mL] | SMILES
14.30 (≈ 25.1 µM) | COc1nc2ccc(S(C)(=O)=O)cc2cc1C(c1cccc(Cl)c1)C1(O)CCNC(c2ccc(F)cc2C)C1 (stereo not drawn) [Compound 47]
1.23 (≈ 2.51 µM) | COc1nc2ccc(F)cc2cc1C(c1ccc(Cl)cc1)C1(O)CCNC(Cc2ccccc2)C1 (stereo not drawn) [Compound 52]
1.55 (≈ 3.16 µM) | COc1nc2ccc(F)cc2cc1C(c1ccc(Cl)cc1)C1(O)CCNC(Cc2ccccc2)C1 (stereo not drawn) [Compound 53]
>13.94 | CS(=O)(=O)c1ccc2[nH]c(=O)c(C(c3ccc(Cl)cc3)C3(O)CCNC(Cc4ccc(F)cc4)C3)cc2c1 (stereo not drawn) [Compound 56]
1.69 (≈ 3.16 µM) | COc1nc2ccc(Br)cc2cc1C(c1ccccc1)C1(O)CCNC(c2ccc(F)cc2C)C1 (stereo not drawn) [Compound 61]
3.17 (≈ 6.31 µM) | CCCN(C)CC1CC(O)(C(c2ccc(Cl)cc2)c2cc3cc(Cl)ccc3nc2OC)CCN1 (stereo not drawn) [Compound 63]
>14.27 | COc1nc2ccc(S(C)(=O)=O)cc2cc1C(c1ccc(Cl)cc1)C1(O)CCNCC1Cc1cccc[n+]1[O-] (stereo not drawn) [Compound 66]
2.84 (≈ 5.02 µM) | CCn1c(=O)c(C(c2ccc(Cl)cc2)C2(O)CCNC(Cc3ccccc3)C2)cc2cc(Br)ccc21 (stereo not drawn) [Compound 82]
7.12 (≈ 12.6 µM) | CCn1c(=O)c(C(c2ccc(Cl)cc2)C2(O)CCNC(Cc3ccccc3)C2)cc2cc(Br)ccc21 (stereo not drawn) [Compound 83]
>13.84 | COc1nc2ccc(S(C)(=O)=O)cc2cc1C(c1ccc(Cl)cc1)C1(O)CCNC(Cc2ccccc2)C1 (stereo not drawn) [Compound 97]
7.09 (≈ 12.6 µM) | COc1nc2ccc(Br)cc2cc1C(c1ccc(SC)cc1)C1(O)CCNC(Cc2ccccc2)C1 (stereo not drawn) [Compound 100]
14.96 (≈ 25.1 µM) | COc1nc2ccc(Br)cc2cc1C(c1ccc(S(C)(=O)=O)cc1)C1(O)CCNC(Cc2ccccc2)C1 (stereo not drawn) [Compound 103]

More lines, now with the values behind:

SMILES | IC90 STA B29213 [µg/mL]
COc1nc2ccc(Cl)cc2cc1C(c1ccc(Cl)cc1)C1(O)CCNC(c2ccc(F)cc2C)C1 (single isomer, unassigned) [Compound 2] | 13.20 (≈ 25.1 µM)
COc1nc2ccc(Cl)cc2cc1C(c1ccc(Cl)cc1)C1(O)CCNC(c2ccc(F)cc2C)C1 (single isomer, unassigned) [Compound 3] | 0.83 (≈ 1.58 µM)
COc1nc2ccc(Br)cc2cc1C(c1ccc(Cl)cc1)C1(O)CCNC(Cc2ccccc2)C1 (stereo not drawn) [Compound 33] | 3.48 (≈ 6.31 µM)
COc1nc2ccc(Br)cc2cc1C(c1cccc(Cl)c1)C1(O)CCNC(Cc2ccccc2)C1 (stereo not drawn) [Compound 34] | 3.48 (≈ 6.31 µM)
COc1nc2ccc(Cl)cc2cc1C(c1ccc(Cl)cc1)C1(O)CCNC(Cc2ccccc2)C1 (stereo not drawn) [Compound 37] | 1.14 (≈ 2.25 µM)
COc1nc2ccc(S(C)(=O)=O)cc2cc1C(c1cccc(Cl)c1)C1(O)CCNC(c2ccc(F)cc2C)C1 (stereo not drawn) [Compound 44] | 7.16 (≈ 12.6 µM)
COc1nc2ccc(S(C)(=O)=O)cc2cc1C(c1cccc(Cl)c1)C1(O)CCNC(c2ccc(F)cc2C)C1 (stereo not drawn) [Compound 45] | 1.80 (≈ 3.16 µM)
COc1nc2ccc(S(C)(=O)=O)cc2cc1C(c1cccc(Cl)c1)C1(O)CCNC(c2ccc(F)cc2C)C1 (stereo not drawn) [Compound 46] | 3.59 (≈ 6.31 µM)

same assay, conditions: Staphylococcus aureus, ATCC29213, 24 h, 90% inhibitory concentration for bacterial growth, resazurin fluorescence, read-out: IC90 STA B29213

IC90 [µg/mL] | SMILES
3.48 (≈ 6.31 µM) | COc1nc2ccc(Br)cc2cc1C(c1ccc(Cl)cc1)C1(O)CCNC(Cc2ccccc2)C1 (stereo not drawn) [Compound 31]
2.77 (≈ 5.01 µM) | COc1nc2ccc(Br)cc2cc1C(c1ccc(Cl)cc1)C1(O)CCNC(Cc2ccccn2)C1 (stereo not drawn) [Compound 60]

tested on: not given; experiment: not given; conditions: not given

melting point [°C] | SMILES
174 | COc1nc2ccc(S(C)(=O)=O)cc2cc1C(c1cccc(Cl)c1)C1(O)CCNC(c2ccc(F)cc2C)C1 (stereo not drawn) [Compound 47]
176 | COc1nc2ccc(F)cc2cc1C(c1ccc(Cl)cc1)C1(O)CCNC(Cc2ccccc2)C1 (stereo not drawn) [Compound 52]
102 | COc1nc2ccc(F)cc2cc1C(c1ccc(Cl)cc1)C1(O)CCNC(Cc2ccccc2)C1 (stereo not drawn) [Compound 53]
140 | CS(=O)(=O)c1ccc2[nH]c(=O)c(C(c3ccc(Cl)cc3)C3(O)CCNC(Cc4ccc(F)cc4)C3)cc2c1 (stereo not drawn) [Compound 56]
161 | COc1nc2ccc(Br)cc2cc1C(c1ccc(Cl)cc1)C1(O)CCNC(Cc2ccccn2)C1 (stereo not drawn) [Compound 60]
141 | COc1nc2ccc(Br)cc2cc1C(c1ccccc1)C1(O)CCNC(c2ccc(F)cc2C)C1 (stereo not drawn) [Compound 61]
157 | CCCN(C)CC1CC(O)(C(c2ccc(Cl)cc2)c2cc3cc(Cl)ccc3nc2OC)CCN1 (stereo not drawn) [Compound 63]
184 | COc1nc2ccc(S(C)(=O)=O)cc2cc1C(c1ccc(Cl)cc1)C1(O)CCNCC1Cc1cccc[n+]1[O-] (stereo not drawn) [Compound 66]
230 | CCn1c(=O)c(C(c2ccc(Cl)cc2)C2(O)CCNC(Cc3ccccc3)C2)cc2cc(Br)ccc21 (stereo not drawn) [Compound 82]
219 | CCn1c(=O)c(C(c2ccc(Cl)cc2)C2(O)CCNC(Cc3ccccc3)C2)cc2cc(Br)ccc21 (stereo not drawn) [Compound 83]
120 | COc1nc2ccc(S(C)(=O)=O)cc2cc1C(c1ccc(Cl)cc1)C1(O)CCNC(Cc2ccccc2)C1 (stereo not drawn) [Compound 97]
143 | COc1nc2ccc(Br)cc2cc1C(c1ccc(SC)cc1)C1(O)CCNC(Cc2ccccc2)C1 (stereo not drawn) [Compound 100]
135 | COc1nc2ccc(Br)cc2cc1C(c1ccc(S(C)(=O)=O)cc1)C1(O)CCNC(Cc2ccccc2)C1 (stereo not drawn) [Compound 103]

More lines, now with the values behind:

SMILES | melting point [°C]
COc1nc2ccc(Cl)cc2cc1C(c1ccc(Cl)cc1)C1(O)CCNC(c2ccc(F)cc2C)C1 (single isomer, unassigned) [Compound 2] | 126
COc1nc2ccc(Cl)cc2cc1C(c1ccc(Cl)cc1)C1(O)CCNC(c2ccc(F)cc2C)C1 (single isomer, unassigned) [Compound 3] | 146
COc1nc2ccc(Br)cc2cc1C(c1ccc(Cl)cc1)C1(O)CCNC(Cc2ccccc2)C1 (stereo not drawn) [Compound 31] | 183
COc1nc2ccc(Br)cc2cc1C(c1ccc(Cl)cc1)C1(O)CCNC(Cc2ccccc2)C1 (stereo not drawn) [Compound 33] | 177
COc1nc2ccc(Br)cc2cc1C(c1cccc(Cl)c1)C1(O)CCNC(Cc2ccccc2)C1 (stereo not drawn) [Compound 34] | 152
COc1nc2ccc(Cl)cc2cc1C(c1ccc(Cl)cc1)C1(O)CCNC(Cc2ccccc2)C1 (stereo not drawn) [Compound 37] | 107
COc1nc2ccc(S(C)(=O)=O)cc2cc1C(c1cccc(Cl)c1)C1(O)CCNC(c2ccc(F)cc2C)C1 (stereo not drawn) [Compound 44] | 148
COc1nc2ccc(S(C)(=O)=O)cc2cc1C(c1cccc(Cl)c1)C1(O)CCNC(c2ccc(F)cc2C)C1 (stereo not drawn) [Compound 45] | 160
COc1nc2ccc(S(C)(=O)=O)cc2cc1C(c1cccc(Cl)c1)C1(O)CCNC(c2ccc(F)cc2C)C1 (stereo not drawn) [Compound 46] | 145
